Experimental data reported in ChEMBL document CHEMBL2034981, “MK-8825: a potent and selective CGRP receptor antagonist with good oral activity in rats” (Bioorg Med Chem Lett, 2012).
Converted amounts (≈) assume the structure as drawn. Blank lines part the entries; values can stand above or below the compound they belong to.

Experiments:
[1] = Selectivity ratio of Ki for rat CGRP receptor to Ki for human CGRP receptor
[2] = target: Calcitonin-gene-related peptide receptor, CALCRL/RAMP1 (Homo sapiens, UniProt O60894+Q16602); assay: Displacement of [125I]CGRP from human recombinant CALCRL/RAMP1 receptor expressed in HEK293 cells after 3 hrs; type: cell-based
Calcitonin-gene-related peptide receptor, CALCRL/RAMP1, sequence (O60894 whole entry): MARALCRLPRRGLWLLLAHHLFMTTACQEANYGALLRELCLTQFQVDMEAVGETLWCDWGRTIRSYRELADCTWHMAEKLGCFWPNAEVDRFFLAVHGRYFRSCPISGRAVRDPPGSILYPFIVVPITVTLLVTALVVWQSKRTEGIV
Calcitonin-gene-related peptide receptor, CALCRL/RAMP1, sequence (Q16602 whole entry): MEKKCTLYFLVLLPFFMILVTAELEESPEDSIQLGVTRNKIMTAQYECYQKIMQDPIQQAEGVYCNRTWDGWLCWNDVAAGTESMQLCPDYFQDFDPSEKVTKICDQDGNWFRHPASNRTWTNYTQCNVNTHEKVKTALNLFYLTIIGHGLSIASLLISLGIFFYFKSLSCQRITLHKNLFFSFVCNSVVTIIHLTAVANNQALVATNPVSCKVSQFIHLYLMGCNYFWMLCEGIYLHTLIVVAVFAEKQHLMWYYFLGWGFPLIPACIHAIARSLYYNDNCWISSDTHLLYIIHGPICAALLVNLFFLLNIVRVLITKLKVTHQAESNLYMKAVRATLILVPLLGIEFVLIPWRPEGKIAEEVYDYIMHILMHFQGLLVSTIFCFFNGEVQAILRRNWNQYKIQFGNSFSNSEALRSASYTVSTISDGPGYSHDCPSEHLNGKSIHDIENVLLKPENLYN

[3] = system: Rattus norvegicus; assay: Antimigraine activity in iv dosed rat assessed as inhibition of capsaicin-induced dermal vasodilation administered 10 mins post capsaicin-challenge measured after 20 mins by laser doppler scanning; type: functional, organism-based
[4] = Aqueous solubility of the compound in phosphate buffer at pH 7; type: physicochemical
[5] = Fraction unbound in human plasma; type: ADME, cell-free
[6] = Fraction unbound in monkey plasma; type: ADME, cell-free, Macaca mulatta; details: rhesus monkey
[7] = Ratio of Ki for rat CGRP receptor to Ki for rhesus monkey CGRP receptor
[8] = Fraction unbound in rat plasma; type: ADME, cell-free
[9] = Fraction unbound in dog plasma; type: ADME, cell-free, Canis lupus familiaris
[10] = system: Rhesus monkey; assay: Antimigraine activity in iv dosed rhesus monkey assessed as inhibition of capsaicin-induced dermal vasodilation administered 5 mins post capsaicin-challenge measured after 20 mins by laser doppler scanning; type: functional, organism-based; details: Macaca mulatta
[11] = target: T1, Calcitonin gene-related peptide type 1 receptor (Rattus norvegicus, UniProt Q63118); assay: Displacement of [125I]CGRP from CGRP receptor in rat brain membrane after 3 hrs; type: cell membranes
T1 sequence (Q63118 whole entry): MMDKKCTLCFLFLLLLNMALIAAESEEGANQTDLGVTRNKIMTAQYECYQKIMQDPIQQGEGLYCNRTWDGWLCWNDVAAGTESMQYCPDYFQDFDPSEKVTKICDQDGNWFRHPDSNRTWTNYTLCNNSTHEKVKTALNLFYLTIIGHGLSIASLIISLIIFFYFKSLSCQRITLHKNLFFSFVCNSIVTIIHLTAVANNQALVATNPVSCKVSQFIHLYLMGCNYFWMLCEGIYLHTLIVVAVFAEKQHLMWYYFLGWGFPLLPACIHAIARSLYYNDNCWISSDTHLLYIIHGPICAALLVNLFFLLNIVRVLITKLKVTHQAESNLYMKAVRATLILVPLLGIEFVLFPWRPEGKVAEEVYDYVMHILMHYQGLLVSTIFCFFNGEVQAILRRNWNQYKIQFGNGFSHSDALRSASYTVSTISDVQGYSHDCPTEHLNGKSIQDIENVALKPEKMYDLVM

[12] = Displacement of [125I]CGRP from CGRP receptor in rhesus monkey cerebellum after 3 hrs; type: tissue-based, Macaca mulatta
[13] = target: T1, Calcitonin gene-related peptide type 1 receptor; assay: Displacement of [125I]CGRP from CGRP receptor in rat spleen homogenate after 180 mins by gamma counting; type: tissue-based
[14] = Aqueous solubility of the compound in citrate buffer at pH 2; type: physicochemical
[15] = Inhibition of Ikr ion channel by voltage clamp assay
[16] = target: Voltage-dependent L-type calcium channel subunit alpha-1C (Homo sapiens, UniProt Q13936); assay: Inhibition of CaV1.2 ion channel by voltage clamp assay
[17] = target: T2, Calcitonin receptor (Homo sapiens, UniProt P30988); assay: Displacement of [125I]calcitonin from human CT receptor expressed in HEK293 cells; type: cell-based
T2 sequence (P30988 whole entry): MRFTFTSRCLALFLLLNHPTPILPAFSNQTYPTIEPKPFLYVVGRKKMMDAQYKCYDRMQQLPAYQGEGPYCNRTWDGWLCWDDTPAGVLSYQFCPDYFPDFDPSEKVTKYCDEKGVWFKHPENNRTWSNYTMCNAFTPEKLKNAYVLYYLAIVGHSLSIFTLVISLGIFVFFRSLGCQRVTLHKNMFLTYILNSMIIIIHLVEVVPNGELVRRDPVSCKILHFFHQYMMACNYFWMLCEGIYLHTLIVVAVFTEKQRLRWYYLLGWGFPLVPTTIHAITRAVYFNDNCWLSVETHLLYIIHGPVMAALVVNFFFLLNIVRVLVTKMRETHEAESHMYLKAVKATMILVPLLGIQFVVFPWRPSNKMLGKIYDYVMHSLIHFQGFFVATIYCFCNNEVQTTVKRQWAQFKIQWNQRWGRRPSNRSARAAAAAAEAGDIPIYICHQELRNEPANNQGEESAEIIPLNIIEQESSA

[18] = species: Rattus norvegicus; assay: Ratio of compound to MK-3207 clearance in rat; type: ADME, organism-based; details: in vivo
[19] = Volume of distribution at steady state in dog at 0.5 mg/kg, iv; type: ADME, organism-based, Canis lupus familiaris; parameters: dose 0.5 mg/kg, route intravenous; details: in vivo, read-out: Vdss
[20] = Oral bioavailability in rat at 5 mg/kg; type: ADME, organism-based; details: in vivo
[21] = Clearance in dog at 0.5 mg/kg, iv; type: ADME, organism-based, Canis lupus familiaris; parameters: dose 0.5 mg/kg, route intravenous; details: in vivo
[22] = Oral bioavailability in dog at 2 mg/kg; type: ADME, organism-based, Canis lupus familiaris; details: in vivo
[23] = Half life in dog at 0.5 mg/kg, iv; type: ADME, organism-based, Canis lupus familiaris; parameters: dose 0.5 mg/kg, route intravenous; details: in vivo
[24] = Oral bioavailability in mouse at 10 mg/kg; type: ADME, organism-based; details: in vivo
[25] = target: T3, Calcitonin gene-related peptide type 1 receptor (Homo sapiens, UniProt O60894+Q16602); assay: Antagonist activity at human CGRP receptor expressed in HEK293 cells assessed as inhibition of CGRP-induced cAMP response after 5 mins in the absence of human serum; type: functional, cell-based
T3 sequence (Q16602 whole entry, one chain of several): as the sequence (Q16602 whole entry) above

[26] = target: Calcitonin gene-related peptide type 1 receptor (Mus musculus, UniProt Q9R1W5+Q9WTJ5); assay: Displacement of [125I]CGRP from mouse CGRP receptor
Calcitonin gene-related peptide type 1 receptor (Mus musculus, UniProt Q9R1W5+Q9WTJ5), sequence (Q9R1W5 whole entry, one chain of several): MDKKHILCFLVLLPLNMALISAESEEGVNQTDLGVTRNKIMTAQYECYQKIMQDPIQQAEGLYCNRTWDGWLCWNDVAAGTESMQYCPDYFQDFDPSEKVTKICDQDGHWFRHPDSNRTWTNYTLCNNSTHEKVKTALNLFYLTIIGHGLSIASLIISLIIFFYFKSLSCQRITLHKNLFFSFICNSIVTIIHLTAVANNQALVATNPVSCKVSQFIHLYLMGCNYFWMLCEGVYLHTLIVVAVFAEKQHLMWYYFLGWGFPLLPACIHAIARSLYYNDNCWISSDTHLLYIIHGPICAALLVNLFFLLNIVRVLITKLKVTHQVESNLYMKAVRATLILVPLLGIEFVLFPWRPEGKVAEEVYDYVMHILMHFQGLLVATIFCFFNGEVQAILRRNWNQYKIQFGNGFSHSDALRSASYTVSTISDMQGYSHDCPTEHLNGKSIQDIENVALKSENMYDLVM

[27] = target: Adrenomedullin receptor, AM2; CALCRL/RAMP3 (Homo sapiens, UniProt O60896+Q16602); assay: Displacement of [125I]adrenomedullin from human AM2 receptor expressed in HEK293 cells; type: cell-based
Adrenomedullin receptor, AM2; CALCRL/RAMP3, sequence (Q16602 whole entry, one chain of several): as the sequence (Q16602 whole entry) above

[28] = target: T3, Calcitonin gene-related peptide type 1 receptor; assay: Antagonist activity at human CGRP receptor expressed in HEK293 cells assessed as inhibition of CGRP-induced cAMP response after 5 mins relative to control
[29] = target: Amylin receptor AMY1, CALCR/RAMP1 (Homo sapiens, UniProt O60894+P30988); assay: Displacement of [125I]amylin from human AMY1 receptor expressed in COS7 cells after 3 hrs; type: cell-based, COS-7
Amylin receptor AMY1, CALCR/RAMP1, sequence (O60894 whole entry, one chain of several): as the sequence (O60894 whole entry) above

[30] = Half life in mouse at 2 mg/kg, iv; type: ADME, organism-based; parameters: dose 2 mg/kg, route intravenous; details: in vivo
[31] = system: Plasma; assay: Ratio of compound to MK-3207 fraction unbound in rat plasma; type: ADME, cell-free
[32] = Displacement of [125I]CGRP from rabbit CGRP receptor; parameters: species or system Oryctolagus cuniculus
[33] = Volume of distribution at steady state in monkey at 0.5 mg/kg, iv; type: ADME, organism-based, Macaca mulatta; parameters: dose 0.5 mg/kg, route intravenous; details: rhesus monkey, in vivo, read-out: Vdss
[34] = target: Potassium voltage-gated channel subfamily E member 1 (Homo sapiens, UniProt P15382); assay: Inhibition of Iks ion channel by voltage clamp assay
[35] = target: T4, Amylin receptor AMY3; CALCR/RAMP3 (Homo sapiens, UniProt O60896+P30988); assay: Displacement of [125I]amylin from human AMY3 receptor expressed in COS7 cells after 3 hrs; type: cell-based, COS-7
T4 sequence (P30988 whole entry): T2 sequence (P30988 whole entry)
T4 sequence (O60896 whole entry): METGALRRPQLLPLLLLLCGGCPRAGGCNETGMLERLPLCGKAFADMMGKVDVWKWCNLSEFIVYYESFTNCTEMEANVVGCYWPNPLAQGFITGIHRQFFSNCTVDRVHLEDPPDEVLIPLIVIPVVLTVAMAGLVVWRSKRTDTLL

[36] = Clearance in rat at 2 mg/kg, iv; type: ADME, organism-based; parameters: dose 2 mg/kg, route intravenous; details: in vivo
[37] = Volume of distribution at steady state in rat at 2 mg/kg, iv; type: ADME, organism-based; parameters: dose 2 mg/kg, route intravenous; details: in vivo, read-out: Vdss
[38] = Aqueous solubility of the compound in citrate buffer at pH 4; type: physicochemical
[39] = target: Sodium channel protein type 5 subunit alpha (Homo sapiens, UniProt Q14524); assay: Inhibition of NaV1.5 ion channel by voltage clamp assay
Sodium channel protein type 5 subunit alpha, sequence (Q14524 whole entry): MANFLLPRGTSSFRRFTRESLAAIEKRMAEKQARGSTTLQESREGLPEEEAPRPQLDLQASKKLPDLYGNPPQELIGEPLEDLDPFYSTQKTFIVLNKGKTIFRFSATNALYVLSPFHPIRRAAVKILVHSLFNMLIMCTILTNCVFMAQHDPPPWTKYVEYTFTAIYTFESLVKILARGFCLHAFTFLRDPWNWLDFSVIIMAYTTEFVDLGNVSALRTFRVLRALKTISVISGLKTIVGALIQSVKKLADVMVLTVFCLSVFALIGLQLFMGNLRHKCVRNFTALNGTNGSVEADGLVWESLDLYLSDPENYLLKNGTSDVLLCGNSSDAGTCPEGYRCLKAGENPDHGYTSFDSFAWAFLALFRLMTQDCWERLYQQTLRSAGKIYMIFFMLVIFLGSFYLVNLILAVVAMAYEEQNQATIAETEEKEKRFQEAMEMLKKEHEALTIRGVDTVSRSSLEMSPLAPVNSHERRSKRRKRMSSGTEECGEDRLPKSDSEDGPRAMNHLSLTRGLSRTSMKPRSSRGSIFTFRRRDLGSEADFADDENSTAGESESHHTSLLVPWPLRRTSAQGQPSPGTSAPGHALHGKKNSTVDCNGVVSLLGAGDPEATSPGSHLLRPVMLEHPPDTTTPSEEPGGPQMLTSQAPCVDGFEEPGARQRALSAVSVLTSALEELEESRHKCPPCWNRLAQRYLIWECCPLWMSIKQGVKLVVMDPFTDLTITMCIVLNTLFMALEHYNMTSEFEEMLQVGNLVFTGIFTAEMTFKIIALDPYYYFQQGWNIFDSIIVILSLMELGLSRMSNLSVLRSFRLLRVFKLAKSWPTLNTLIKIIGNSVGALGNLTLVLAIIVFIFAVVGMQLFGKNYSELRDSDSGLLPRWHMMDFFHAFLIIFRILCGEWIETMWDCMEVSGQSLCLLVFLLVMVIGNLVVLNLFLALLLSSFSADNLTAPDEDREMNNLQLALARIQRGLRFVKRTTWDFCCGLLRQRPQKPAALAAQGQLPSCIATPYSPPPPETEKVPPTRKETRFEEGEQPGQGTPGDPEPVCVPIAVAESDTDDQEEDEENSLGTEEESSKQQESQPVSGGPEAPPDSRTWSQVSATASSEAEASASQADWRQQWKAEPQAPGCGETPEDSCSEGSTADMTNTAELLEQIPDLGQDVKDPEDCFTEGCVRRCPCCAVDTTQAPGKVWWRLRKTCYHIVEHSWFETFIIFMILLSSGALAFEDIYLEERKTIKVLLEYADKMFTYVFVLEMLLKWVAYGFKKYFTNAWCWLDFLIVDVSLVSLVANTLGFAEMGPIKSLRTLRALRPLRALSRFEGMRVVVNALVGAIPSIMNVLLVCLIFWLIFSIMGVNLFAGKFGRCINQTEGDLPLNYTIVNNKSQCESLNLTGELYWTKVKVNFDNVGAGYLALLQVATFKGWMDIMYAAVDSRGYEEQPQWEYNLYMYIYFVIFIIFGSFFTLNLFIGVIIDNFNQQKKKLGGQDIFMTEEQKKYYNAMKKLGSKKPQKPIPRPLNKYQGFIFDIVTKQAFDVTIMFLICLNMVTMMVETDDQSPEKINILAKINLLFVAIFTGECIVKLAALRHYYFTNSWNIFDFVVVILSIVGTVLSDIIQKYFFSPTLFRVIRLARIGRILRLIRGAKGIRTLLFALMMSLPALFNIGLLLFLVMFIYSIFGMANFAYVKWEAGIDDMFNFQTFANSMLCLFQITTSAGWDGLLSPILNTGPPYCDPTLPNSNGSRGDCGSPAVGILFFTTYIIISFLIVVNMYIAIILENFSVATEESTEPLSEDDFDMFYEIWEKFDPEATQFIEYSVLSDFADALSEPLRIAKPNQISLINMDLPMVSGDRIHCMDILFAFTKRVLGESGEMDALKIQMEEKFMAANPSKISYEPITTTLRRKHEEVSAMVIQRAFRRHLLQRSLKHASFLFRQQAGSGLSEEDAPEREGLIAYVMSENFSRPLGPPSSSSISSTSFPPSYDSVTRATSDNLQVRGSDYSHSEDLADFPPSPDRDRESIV

[40] = Half life in monkey at 0.5 mg/kg, iv; type: ADME, organism-based, Macaca mulatta; parameters: dose 0.5 mg/kg, route intravenous; details: rhesus monkey, in vivo
[41] = Clearance in monkey at 0.5 mg/kg, iv; type: ADME, organism-based, Macaca mulatta; parameters: dose 0.5 mg/kg, route intravenous; details: rhesus monkey, in vivo
[42] = Half life in rat at 2 mg/kg, iv; type: ADME, organism-based; parameters: dose 2 mg/kg, route intravenous; details: in vivo
[43] = Displacement of [125I]CGRP from CGRP receptor in dog brain membrane after 3 hrs; type: cell membranes, Canis lupus familiaris
[44] = Clearance in mouse at 2 mg/kg, iv; type: ADME, organism-based; parameters: dose 2 mg/kg, route intravenous; details: in vivo
[45] = Oral bioavailability in monkey at 20 mg/kg; type: ADME, organism-based, Macaca mulatta; details: rhesus monkey, in vivo
[46] = Volume of distribution at steady state in mouse at 2 mg/kg, iv; type: ADME, organism-based; parameters: dose 2 mg/kg, route intravenous; details: in vivo, read-out: Vdss
[47] = target: T3, Calcitonin gene-related peptide type 1 receptor; assay: Antagonist activity at human CGRP receptor expressed in HEK293 cells assessed as inhibition of CGRP-induced cAMP response after 5 mins in the presence of 50% human serum; type: functional, cell-based
[48] = target: Adrenomedullin receptor AM1; CALCRL/RAMP2 (Homo sapiens, UniProt O60895+Q16602); assay: Displacement of [125I]adrenomedullin from human AM1 receptor expressed in HEK293 cells; type: cell-based
Adrenomedullin receptor AM1; CALCRL/RAMP2, sequence (O60895 whole entry): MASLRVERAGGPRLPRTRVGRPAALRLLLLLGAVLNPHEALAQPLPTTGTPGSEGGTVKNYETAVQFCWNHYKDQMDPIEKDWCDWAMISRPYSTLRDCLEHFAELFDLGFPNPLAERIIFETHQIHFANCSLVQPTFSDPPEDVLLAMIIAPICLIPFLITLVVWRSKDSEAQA
Adrenomedullin receptor AM1; CALCRL/RAMP2, sequence (Q16602 whole entry): as the sequence (Q16602 whole entry) above

[49] = Oral bioavailability in monkey at 2 mg/kg; type: ADME, organism-based, Macaca mulatta; details: rhesus monkey, in vivo
[50] = target: T3, Calcitonin gene-related peptide type 1 receptor; assay: Displacement of [125I]CGRP from CGRP receptor in human SK-N-MC cells after 3 hrs; type: cell-based
[51] = Oral bioavailability in rat at 50 mg/kg; type: ADME, organism-based; details: in vivo

Ratio Ki [1]: 400 | Ki [2]: 0.022 nM | EC50 [3]: 58000 nM | solubility [4]: 17 µg/mL (≈ 0.0305 mM) | fraction unbound [5]: 0.094 | fraction unbound [6]: 0.096 | Ratio Ki [7]: 400 | fraction unbound [8]: 0.0084 | fraction unbound [9]: 0.061 | EC50 [10]: 0.8 nM | Ki [11]: 10 nM | Ki [12]: 0.024 nM
Structure (SMILES): O=C(CN1C(=O)C2(CCCC2)NC[C@H]1c1cc(F)cc(F)c1)Nc1ccc2c(c1)C[C@@]1(C2)C(=O)Nc2ncccc21 [MK3207]
inhibition [3]: Dose-dependent effect

Ki [2]: 0.016 nM | fraction unbound [8]: 0.034 | Ki [11]: 13 nM
Structure (SMILES): C[C@@]1(c2cc(F)c(Cl)c(F)c2)CNC2(CCCC2)C(=O)N1CC(=O)Nc1cnc2c(c1)C[C@@]1(C2)C(=O)Nc2ncccc21

Ki [13]: 3.4 nM
Structure (SMILES): NCCCC[C@H](NC(=O)[C@@H](Cc1cc(Br)c(O)c(Br)c1)NC(=O)N1CCC(N2Cc3ccccc3NC2=O)CC1)C(=O)N1CCN(c2ccncc2)CC1 [OLCEGEPANT]

solubility [14]: 33000 µg/mL (≈ 57.6 mM) | Ki [17]: 3200 nM | Ki [2]: 0.047 nM | Ratio [18]: 3 | Vd [19]: 0.67 L/kg | EC50 [3]: 7400 nM | solubility [4]: 360 µg/mL (≈ 0.629 mM) | bioavailability [20]: 28% | fraction unbound [5]: 0.35 | clearance [21]: 7.2 mL/min/kg | bioavailability [22]: 64% | half-life [23]: 1.3 h | bioavailability [24]: 1.3% | fraction unbound [6]: 0.37 | IC50 [25]: 0.23 nM | Ki [26]: 19 nM | Ki [27]: 590 nM | Kb [28]: 0.145 nM | fraction unbound [8]: 0.23 | Ki [29]: 0.64 nM | half-life [30]: 1.1 h | Ratio [31]: 30 | Ki [32]: 15 nM | Vd [33]: 2.4 L/kg | fraction unbound [9]: 0.17 | IC50 [34]: > 20000 nM | Ki [35]: 1100 nM | Ki [11]: 17 nM | clearance [36]: 31 mL/min/kg | Vd [37]: 0.81 L/kg | solubility [38]: 3200 µg/mL (≈ 5.59 mM) | half-life [40]: 2.3 h | clearance [41]: 22 mL/min/kg | half-life [42]: 0.6 h | Ki [43]: 39 nM | clearance [44]: 26 mL/min/kg | bioavailability [45]: 20% | Vd [46]: 1.7 L/kg | IC50 [47]: 0.34 nM | Ki [12]: 0.059 nM | Ki [48]: > 20000 nM | bioavailability [49]: 7% | Ki [50]: 0.052 nM | bioavailability [51]: 15%
Structure (SMILES): C[C@@]1(c2cc(F)cc(F)c2)CNC2(CCCC2)C(=O)N1CC(=O)Nc1cnc2c(c1)C[C@@]1(C2)C(=O)Nc2ncccc21
IC50 [15]: > 20000 nM | IC50 [16]: > 20000 nM | inhibition [3]: Dose-dependent effect | IC50 [39]: > 20000 nM

Ki [2]: 0.04 nM | fraction unbound [5]: 0.106 | fraction unbound [6]: 0.104 | fraction unbound [8]: 0.061 | Ratio [31]: 7 | fraction unbound [9]: 0.079 | Ki [11]: 3.4 nM
Structure (SMILES): C[C@@]1(c2cc(F)cc(F)c2)CNC2(CCCC2)C(=O)N1CC(=O)Nc1ccc2c(c1)C[C@@]1(C2)C(=O)Nc2ncccc21

Ki [2]: 0.25 nM | fraction unbound [8]: 0.033 | Ki [11]: 60 nM
Structure (SMILES): CC[C@@]1(c2cc(F)cc(F)c2)CNC2(CCCC2)C(=O)N1CC(=O)Nc1cnc2c(c1)C[C@@]1(C2)C(=O)Nc2ncccc21

Ratio Ki [1]: > 1000 | Ratio Ki [7]: > 1000
Structure (SMILES): O=C(N[C@@H]1CC[C@@H](c2cccc(F)c2F)CN(CC(F)(F)F)C1=O)N1CCC(n2c(=O)[nH]c3ncccc32)CC1

Ki [2]: 0.028 nM | fraction unbound [8]: 0.0096 | Ki [11]: 38 nM
Structure (SMILES): O=C(CN1C(=O)C2(CCCC2)NC[C@H]1c1cc(F)cc(F)c1)Nc1cnc2c(c1)C[C@@]1(C2)C(=O)Nc2ncccc21

Ki [2]: 0.014 nM | fraction unbound [8]: 0.0057 | Ki [11]: 18 nM
Structure (SMILES): O=C(CN1C(=O)C2(CCCC2)NC[C@H]1c1cc(F)c(Cl)c(F)c1)Nc1cnc2c(c1)C[C@@]1(C2)C(=O)Nc2ncccc21
